Earlier results, collected in patent US20250295106A1, “HERBICIDAL COMPOSITION” (NOURYON CHEMICALS INTERNATIONAL B.V., priority 2024, published 2025).

Settings: acid form, at 25° C.

Q: With `O=C(O)CNCP(=O)(O)O` [glyphosate, N-phosphonomethylglycine] as the compound, how does the solubility in water read?
A: The solubility in water was 1.16 % by weight.
